Results from patent publication US7695948B2, “Antibodies that bind TNF-α converting enzyme” (Immunex Corporation, priority 1995, dated 2010).

Target: T1, TACE (Homo sapiens, UniProt P78536)
T1 construct: The TACE was isolated and purified from the membranes of the human monocytic cell line, THP-1; endogenous in cells; host or cells: THP-1 human monocytic cell line (ATCC TIB 202), stimulated to produce TNF-α; Enzyme was solubilised from plasma membranes and purified by chromatography
Assay: TACE activity assay (cleavage of TNF-α peptide substrate, HPLC)
Assay type: biochemical
Details: dithiothreitol included in plasma membrane isolation from THP-1 cells
Procedure: As further described in Example 1, infra, a quantitative assay for TACE also may be used which assay involves incubating the peptide substrate, at about 1 mM, with TACE at 37° C. for a fixed period of time; stopping the reaction by the addition of an acid or a metal chelator; and determining the extent of cleavage by HPLC analysis.
This Example describes a method for purifying TACE. The TACE was isolated and purified from the membranes of the human monocytic cell line, THP-1, (ATCC no. TIB 202) that had been stimulated to produce TNF-α. THP-1 cells were chosen because they produce more TNF-α than HL-60 cells, a more commonly used human monocytic cell line. […]
This material was incubated at 37° C. for at least 4 hours with the TACE eluted from the DEAE-Sepharose, that had been treated with 1 mM N-methoxysuccinyl-Ala-Ala-Val -chloro-methylketone, 10 μg/ml leupeptin, and 1 mg/ml α1-protease inhibitor, all of which are commercially available. […] Based on this observation, a quantitative assay was established: the peptide, at 1 mM, was incubated with the enzyme at 37° C. for a fixed period of time, in the presence of 0.1 mM dichloroisocoumarin, 1 mM methoxysuccinyl-Ala-Ala-Pro-Val-chloromethyl-ketone, 10 μg/ml leupeptin, 10 μM bestatin, and 1 mg/ml α1-protease inhibitor (Sigma), all of which are commercially available. […]

T1 sequence (P78536 215-824): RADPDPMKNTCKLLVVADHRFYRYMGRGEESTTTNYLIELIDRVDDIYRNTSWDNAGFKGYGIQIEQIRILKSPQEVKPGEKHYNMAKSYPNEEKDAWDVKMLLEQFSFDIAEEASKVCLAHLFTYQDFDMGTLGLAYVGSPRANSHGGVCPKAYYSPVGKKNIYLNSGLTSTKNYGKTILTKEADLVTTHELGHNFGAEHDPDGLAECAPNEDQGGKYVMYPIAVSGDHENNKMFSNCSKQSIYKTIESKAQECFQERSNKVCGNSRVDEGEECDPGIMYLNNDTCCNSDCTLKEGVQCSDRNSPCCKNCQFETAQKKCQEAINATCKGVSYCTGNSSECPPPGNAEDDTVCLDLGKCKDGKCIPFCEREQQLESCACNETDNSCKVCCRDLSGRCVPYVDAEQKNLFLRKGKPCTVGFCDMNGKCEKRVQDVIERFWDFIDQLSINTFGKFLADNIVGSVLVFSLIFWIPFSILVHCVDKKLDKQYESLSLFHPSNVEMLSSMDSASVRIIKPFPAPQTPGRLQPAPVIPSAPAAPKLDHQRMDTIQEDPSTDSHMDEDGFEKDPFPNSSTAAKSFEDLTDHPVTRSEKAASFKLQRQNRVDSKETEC

TACE activity: blocks TACE activity
Compound: O[C@H](CS)[C@H](O)CS (racemic) [dithiothreitol]
